Laboratory results reported in patent US20260216336A1, “NEW PSORALEN COMPOUND” (NAGASAKI UNIVERSITY, priority 2022, published 2026).
Read-outs that look alike come from different tables or passages of the source.

Columns and labels:
DNA [1] = conditions: background statement on commercially available reagent; cited from earlier work
DNA [2] = assay: DNA crosslinking efficiency of psoralen reagents (general statements, no method given); type: biochemical; conditions: studies conducted by the inventors

Row | SMILES | DNA crosslinking efficiency (DNA [1]) | DNA crosslinking efficiency (DNA [2])
1 | Cc1oc2c(C)c3oc(=O)cc(C)c3cc2c1COCCCCCCOP(OCCC#N)N(C(C)C)C(C)C (centres unmarked) [Psoralen C6 Phosphoramidite, 6-[4′-(Hydroxymethyl)-4,5′,8-trimethylpsoralen]-hexyl-1-O-(2-cyanoethyl)-(N,N-diisopropyl)-phosphoramidite] | favorable DNA crosslinking efficiency | 
2 | O=C(CCCOc1c2occc2cc2ccc(=O)oc12)ON1C(=O)CCC1=O [SPB, succinimidyl-[4-(psoralen-8-yloxy)]butyrate] |  | very low
